Results as given in patent US8552176B2 (priority 2010, dated 2013).

Assays:
Assay in all cases: cells
Format in all cases: cell-based, human
A549 = details: read-out: GI50 A549 lung (+p53)
H1299 = details: read-out: GI50 H1299 lung (−p53)
NCI-H460 = details: read-out: GI50 NCI-H460 lung
HCT-15 = details: read-out: GI50 HCT-15 colorectal
HT29 = details: read-out: GI50 HT29 colorectal
Hep3b = details: read-out: GI50 Hep3b liver
MCF7 = details: read-out: GI50 MCF7 breast
DU-145 = details: read-out: GI50 DU-145 prostate
SF-268 = details: read-out: GI50 SF-268 CNS
SKOV3 = details: read-out: GI50 SKOV3 ovary

| SMILES | GI50 (A549) [µM] | GI50 (H1299) [µM] | GI50 (NCI-H460) [µM] | GI50 (HCT-15) [µM] | GI50 (HT29) [µM] | GI50 (Hep3b) [µM] | GI50 (MCF7) [µM] | GI50 (DU-145) [µM] | GI50 (SF-268) [µM] | GI50 (SKOV3) [µM] |
| --- | --- | --- | --- | --- | --- | --- | --- | --- | --- | --- |
| CON(CCCCc1ccc(N(CCCl)CCCl)cc1)C1OC(CO)C(O)C(O)C1O (mixture of isomers) [Compound 10] | 3.4 | 0.53 ± 0.05 | 9.5 ± 0.7 | 0.97 ± 0.07 | 0.6 ± 0.9 | 4.4 ± 0.3 | 9.3 ± 0.7 | 5.8 ± 0.1 | 3.1 ± 0.1 | 3 ± 0.1 |
| CON(CCCCc1ccc(N(CCCl)CCCl)cc1)C1OC(CO)C(O)C(O)C1O (mixture of isomers) [Compound 11] | 3.5 ± 0.2 | 1.3 ± 0.1 | 10.4 ± 0.8 | 1.7 ± 0.1 | 2.2 ± 0.1 | 2.5 ± 0.1 | 9 ± 0.7 | 6 ± 0.1 | 3.2 ± 0.1 | 3.1 ± 0.1 |
| CON(CCCCc1ccc(N(CCCl)CCCl)cc1)C1OC(CO)C(O)C(O)C1O (mixture of isomers) [Compound 12] | 2.4 ± 0.1 | 0.91 ± 0.05 | 6.6 ± 0.4 | 1.4 ± 0.1 | 1.6 ± 0.2 | 1.7 ± 0.1 | 6.5 ± 0.1 | 4.1 ± 0.2 | 1.9 ± 0.1 | 1.9 ± 0.1 |
| CON(CCCCc1ccc(N(CCCl)CCCl)cc1)C1OC(CO)C(O)C(O)C1O (mixture of isomers) [Compound 13] | 3.1 ± 0.2 | 1.3 ± 0.1 | 7.9 ± 0.5 | 1.4 ± 0.1 | 2.1 ± 0.2 | 2 ± 0.1 | 7.9 ± 0.8 | 4.1 ± 0.1 | 2.3 ± 0.1 | 2.5 ± 0.1 |
| CON(CCCCc1ccc(N(CCCl)CCCl)cc1)C1OCC(O)C(O)C1O (mixture of isomers) [Compound 14] | 2 ± 0.1 | 0.73 ± 0.03 | 5 ± 0.4 | 0.9 ± 0.04 | 1.5 ± 0.2 | 1.6 ± 0.1 | 4.6 ± 0.1 | 3.3 ± 0.1 | 1.8 ± 0.1 | 2 ± 0.1 |
| CON(CCCCc1ccc(N(CCCl)CCCl)cc1)C1OCC(O)C(O)C1O (mixture of isomers) [Compound 15] | 2.3 ± 0.2 | 0.84 ± 0.04 | 6.1 ± 0.5 | 1 ± 0.05 | 1.9 ± 0.1 | 1.9 ± 0.1 | 5.4 ± 0.1 | 3.6 ± 0.1 | 1.9 ± 0.1 | 2.2 ± 0.1 |
| CON(CCCCc1ccc(N(CCCl)CCCl)cc1)C1OC(CO)C(OC2OC(CO)C(O)C(O)C2O)C(O)C1O (mixture of isomers) [Compound 17] | 1.6 ± 0.1 | 1.8 ± 0.1 | 3.8 ± 0.3 | 2.3 ± 0.1 | 1.9 ± 0.1 | 1.2 ± 0.1 | 1.7 ± 0.1 | 1.8 ± 0.1 | 1.5 ± 0.1 | 1.8 ± 0.1 |
| CON(CCCCc1ccc(N(CCCl)CCCl)cc1)C1CC(O)C(O)C(C)O1 (mixture of isomers) [Compound 18] | 2.7 ± 0.2 | 1.1 ± 0.1 | 6.5 ± 0.4 | 1.3 ± 0.1 | 2.1 ± 0.09 | 3.2 ± 0.1 | 6.3 ± 0.1 | 4.3 ± 0.1 | 2.8 ± 0.1 | 3 ± 0.1 |
| CON(CCCCc1ccc(N(CCCl)CCCl)cc1)C1OC(C)C(O)C(O)C1O (mixture of isomers) [Compound 20] | 9.6 ± 0.4 | 3.5 ± 0.2 | 5.9 ± 0.3 | 0.82 ± 0.07 | 6.7 ± 0.3 | 2.6 ± 0.2 | 3 ± 0.2 | 4.1 ± 0.9 | 1.7 ± 0.1 | 1.7 ± 0.1 |
| CON(CCCCc1ccc(N(CCCl)CCCl)cc1)C1OC(C)C(O)C(O)C1O (mixture of isomers) [Compound 21] | 2.2 ± 0.1 | 1.2 ± 0.1 | 5.4 ± 0.3 | 1.4 ± 0.1 | 2.3 ± 0.1 | 3 ± 0.1 | 0.78 ± 0.09 | 3.8 ± 0.1 | 2 ± 0.1 | 1.8 ± 0.1 |
| CON(CCCCc1ccc(N(CCCl)CCCl)cc1)C1OC(C)C(OCc2ccccc2)C(OCc2ccccc2)C1OCc1ccccc1 (mixture of isomers) [Compound 22] | 6.4 ± 0.2 | 3.3 ± 0.2 | 15.8 ± 0.7 | 4.6 ± 0.2 | 7.5 ± 0.3 | 9.5 ± 0.4 | 4 ± 1 | 10 ± 0.4 | 5.7 ± 0.2 | 7.2 ± 0.4 |
| CON(CCCCc1ccc(N(CCCl)CCCl)cc1)C1OC(CO)C(O)C(O)C1O (mixture of isomers) [Compound 23] | 4.4 ± 0.4 | 1.3 ± 0.1 | 9.7 ± 0.8 | 2.4 ± 0.1 | 3.3 ± 0.4 | 3.6 ± 0.3 | 1.3 ± 0.2 | 5.6 ± 0.3 | 1.9 ± 0.5 | 3.4 ± 0.5 |
| CON(CCCCc1ccc(N(CCCl)CCCl)cc1)C1OC(CO)C(O)C(O)C1O (mixture of isomers) [Compound 24] | 4.8 ± 0.4 | 1.4 ± 0.1 | 10.4 ± 0.7 | 2.3 ± 0.3 | 3.7 ± 0.5 | 3.8 ± 0.3 | 1.3 ± 0.1 | 5.5 ± 0.2 | 2 ± 0.4 | 4.1 ± 0.6 |
| CON(CCCCc1ccc(N(CCCl)CCCl)cc1)C1CC(O)C(O)C(CO)O1 (mixture of isomers) [Compound 25] | 3.2 ± 0.2 | 1.5 ± 0.1 | 6.6 ± 0.4 | 1.6 ± 0.1 | 3.5 ± 0.7 | 3.3 ± 0.1 | 1.04 ± 0.08 | 5 ± 0.7 | 2.2 ± 0.1 | 2.4 ± 0.1 |
| CON(CCCCc1ccc(N(CCCl)CCCl)cc1)C1OC(C(=O)O)C(O)C(O)C1O (mixture of isomers) [Compound 26] | 17.1 ± 0.8 | 4.9 ± 0.7 | 34 ± 2 | 8.1 ± 0.6 | 14.9 ± 0.1 | 14.7 ± 0.8 | 4.5 ± 0.5 | 16.3 ± 0.5 | 8.9 ± 0.4 | 12.8 ± 0.5 |
| CON(CCCCc1ccc(N(CCCl)CCCl)cc1)C1OC(CO)C(O)C(O)C1NC(C)=O (mixture of isomers) [Compound 27] | 22 ± 1 | 3.8 ± 0.4 | 42 ± 3 | 19.1 ± 0.8 | 12 ± 1 | 11.8 ± 0.4 | 4.4 ± 0.6 | 16.7 ± 0.7 | 4.2 ± 0.4 | 11 ± 1 |
| CON(CCCCc1ccc(N(CCCl)CCCl)cc1)C1OC(CN)C(O)C(O)C1O (mixture of isomers) [Compound 34] | 3.7 ± 0.2 | 1.1 ± 0.1 | 5 ± 0.4 | 1.3 ± 0.1 | 2.5 ± 0.1 | 3.5 ± 0.2 | 3.7 ± 0.4 | 2.8 ± 0.1 | 2.2 ± 0.1 | 2.2 ± 0.1 |
| CON(CCCCc1ccc(N(CCCl)CCCl)cc1)C1OC(C)C(O)C(O)C1O (centres unmarked) [Compound 37] | 4.6 ± 0.2 | 1.8 ± 0.1 | 8.5 ± 0.8 | 1.1 ± 0.1 | 2.2 ± 0.2 | 4.4 ± 0.3 | 5.8 ± 0.1 | 4.9 ± 0.1 | 2.9 ± 0.1 | – |
